Assay in all cases: NCI-60 cell line screen, 48 h
Experiment [1] concerns A549 NSCLC.
For experiment [2], the system named is UACC-257 melanoma.
Experiment [3] relates to SK-OV-3 ovarian.
For experiment [4], the system named is OVCAR-4 ovarian.
In experiment [5] the test system is SR leukemia.
Experiment [6] relates to A498 renal.
Experiment [7] relates to HOP-62 NSCLC.
Experiment [8] relates to UACC-62 melanoma.
Experiment [9] has as its system NCI/ADR-RES ovarian.

SMILES strings stand for the structures.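 Following 48 hours of exposure in 96-well plates, responses at five concentrations were used to interpolate endpoints linearly. Here, GI50 denotes the concentration required for 50% inhibition of growth. TGI marks complete inhibition of growth.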

In the case of `CC1C[C@H](C)CC(C(O)CC2CC(=O)N(Cc3ccccc3)C(=O)C2)C1O` (stereo partly drawn), the TGI in experiment [1], in [2], in experiment [3], in [4], in experiment [5] and in experiment [6] was greater than 100 µM in each case. Further, the TGI in experiment [7] and in experiment [8] was greater than 100 µM each time.
Regarding `N/N=C(\C(=O)Nc1ccc(Cl)cc1Cl)C(c1cnc2ccccc2n1)[N+](=O)[O-]` (stereo not drawn), the TGI in [1], in experiment [2], in experiment [3], in experiment [4], in experiment [9] and in experiment [6] was greater than 100 µM in each case. Further, the TGI in experiment [7] and in experiment [8] was greater than 100 µM throughout.
With `O=C(c1ccccc1)N1C2CCC1C(C(F)(F)F)=C2C(F)(F)F`, the TGI in [1], in [2], in experiment [3], in [4], in [5] and in experiment [6] was greater than 100 µM each time. Moreover, the TGI in [7] and in [8] was greater than 100 µM each time.
For `COc1c(C(=O)c2ccc([N+](=O)[O-])cc2)cc(C(C)(C)C)cc1C(C)(C)C`, the TGI in experiment [1] was greater than 100 µM; in experiment [2] it was 59.3 µM; in [3] it was greater than 100 µM; in [4] it was greater than 100 µM; in experiment [5], 64.1 µM; in experiment [6], greater than 100 µM. In addition, the TGI in [7] was greater than 100 µM; in [8], 36.2 µM.
`CC(=O)OC1CCCn2c1nc1c2C(=O)C(C)=C(N2CC2)C1=O` (stereo not drawn): the TGI is 2.77 µM in experiment [1]; 0.587 µM in experiment [2]; 0.965 µM in experiment [3]; 2.35 µM in [4]; greater than 100 µM in experiment [5]; 0.36 µM in [6]. Also, the results for the TGI in [7] and in experiment [8] were 0.625 µM and 0.77 µM, respectively.
On to `CC1SC2=NC3=C(c4ccccc4C3=O)C(c3ccc(Cl)cc3)N2C1=O` (stereo not drawn), for which the TGI in experiment [1], in experiment [2], in experiment [3], in experiment [4], in experiment [6] and in experiment [7] was greater than 100 µM throughout. Further, in [8], the TGI was greater than 100 µM.
As for `CNCc1cc(OC)ccc1-c1ccc(OC)c(OC)c1OC`, the TGI in [1], in experiment [2], in experiment [3], in experiment [4], in experiment [5] and in [6] was greater than 100 µM in each case. The TGI in [7] and in experiment [8] was greater than 100 µM throughout.
In the case of `NC(N)=N/N=C/c1c(-c2cc(Cl)sc2Cl)nc2sccn12`, the GI50 was 2.17 µM in [1]; 8.6 µM in [2]; 7.71 µM in [9]; 1.35 µM in [5]; 1.54 µM in experiment [6]; 2.07 µM in experiment [7]. Besides, the GI50 in experiment [8] was 0.752 µM. The TGI in [1] turned out to be 11.3 µM; in experiment [2] it was 17.6 µM; in experiment [9] it was 15.4 µM; in experiment [5], 2.68 µM; in experiment [6] it was 10.2 µM; in [7] it was 7.24 µM. In [8], this compound had a TGI of 1.46 µM.
With `CC1CC(=O)Nc2ccccc2N1C(=O)CN1CCC(CCCCN(C)C)CC1` (stereo not drawn), the TGI in [1], in [2], in experiment [4], in experiment [5], in [6] and in [7] was greater than 100 µM each time. For the same compound, the TGI in experiment [8] is greater than 100 µM.
Turning to `CC(=O)c1ccc(OCC(O)CO)cc1` (stereo not drawn), the TGI in experiment [1], in experiment [2], in experiment [3], in experiment [4], in experiment [6] and in experiment [7] was greater than 100 µM throughout. In experiment [8], this compound yielded a TGI greater than 100 µM.
Take `CC[P+](C)(C)c1ccccc1`: the TGI in experiment [1], in experiment [2], in [3], in [4], in experiment [6] and in experiment [7] was greater than 100 µM throughout. The TGI in experiment [8] is greater than 100 µM.
For `CCOC(=O)CSC(=O)NCCCl`, the TGI in experiment [1], in [2], in experiment [3], in [4], in experiment [5] and in experiment [6] was greater than 100 µM throughout. In addition, the TGI in experiment [7] and in [8] was greater than 100 µM each time. In addition, in experiment [5], the GI50 is greater than 100 µM.
For the compound `CC1=NOC(=O)/C1=C/c1cccc2ccccc12`, the TGI in experiment [1], in experiment [2], in [3], in experiment [4], in experiment [5] and in [6] was greater than 100 µM in each case. Besides, the TGI in [7] and in experiment [8] was greater than 100 µM in each case.
`O=C1c2ccccc2C(=O)N1CCN(CCN1C(=O)c2ccccc2C1=O)Cn1cccn1`: the TGI in experiment [1], in experiment [2], in [3], in experiment [4], in experiment [6] and in experiment [7] was greater than 100 µM throughout. In experiment [8], this compound had a TGI of 63.2 µM.
Regarding `NNC(=O)CNC(=O)c1ccc(Cl)cc1Cl`, the TGI in [1], in [2], in experiment [3], in [4], in experiment [6] and in experiment [7] was greater than 100 µM in each case. In [8], this compound had a TGI greater than 100 µM.
For `CC(=O)Nc1cc(N(CCOS(C)(=O)=O)CCOS(C)(=O)=O)ccc1N=O`, the TGI in experiment [1], in [2], in [4], in experiment [5], in [7] and in experiment [8] was greater than 100 µM throughout.
Take `CC(/C(=N\Nc1ccccc1)c1ccc(O)cc1)C1C(=O)Oc2ccccc21` (stereo not drawn): the TGI in experiment [1], in [2], in [4], in [5], in [6] and in experiment [7] was greater than 100 µM throughout. Moreover, in experiment [8], the TGI was greater than 100 µM.
For `O=C(O)C[C@H]1CCCCC12CCOC2=O` (stereo partly drawn), the TGI in [1], in experiment [2], in [3], in experiment [4], in [5] and in experiment [7] was greater than 100 µM throughout. This compound came in with a TGI in experiment [8] greater than 100 µM.
As to `COC(=O)C(Cc1cc(OC)c(OC)c(OC)c1)c1ccc(OC)cc1` (stereo not drawn), the TGI in experiment [1], in experiment [2], in [4], in [6], in experiment [7] and in experiment [8] was greater than 100 µM in each case.
As to `N#Cc1c2c(c(N=P(c3ccccc3)(c3ccccc3)c3ccccc3)n3c1nc1ccccc13)CCCC2`, the TGI was greater than 100 µM in experiment [1]; 57.8 µM in experiment [2]; greater than 100 µM in [3]; greater than 100 µM in experiment [4]; 73.2 µM in [6]; 71.5 µM in experiment [7]. Further, in experiment [8], the TGI amounted to 74.4 µM.
As for `Cc1cc2c(cc1C)[n+](=O)c(C(=O)C/C(=N/OCCCc1ccccc1)C(=O)Nc1cc(Cl)ccc1Cl)c(C)n2[O-]`, the TGI in experiment [1], in experiment [2], in experiment [3], in experiment [4], in [6] and in experiment [7] was greater than 100 µM in each case. Also, in [8], the TGI was greater than 100 µM.
In the case of `CO[C@@H]1C=C[C@@]23c4cc5c(cc4C(=O)O[C@H]2CN(C)[C@H]3C1)OCO5`, the TGI in [1], in experiment [2], in [3], in experiment [4], in [5] and in [6] was greater than 100 µM each time. The TGI in experiment [8] is greater than 100 µM.
In the case of `Cc1ccc(NC(=O)C(=O)C(C#N)c2nc(-c3ccc(-c4ccccc4)cc3)cs2)c(C)c1` (stereo not drawn), the TGI in experiment [1], in experiment [2], in experiment [3], in [4], in [5] and in experiment [6] was greater than 100 µM each time. The TGI in experiment [7] and in [8] was greater than 100 µM each time.
With `COC(=O)C(=O)C(C(=O)C(=O)Nc1nc2ccc(C)cc2s1)c1nc2ccc([N+](=O)[O-])cc2[nH]c1=O` (stereo not drawn), the TGI in experiment [1], in experiment [2], in experiment [3], in [9], in [5] and in experiment [6] was greater than 100 µM each time. Moreover, the TGI in experiment [7] and in experiment [8] was greater than 100 µM throughout.
With `CC1(C)C(O)C[C@@H](O)[C@@]2(C)C1CC[C@]1(C)C2C[C@@H](O)[C@@H]2C([C@@]3(C)CC[C@@H](C(C)(C)O)O3)CCC21C` (stereo partly drawn), the TGI in [1] was 37 µM; in [2], greater than 54.1 µM; in experiment [3] it was 33.5 µM; in experiment [4], 37.9 µM; in [5], greater than 100 µM; in [6], 34.9 µM. Besides, the results for the TGI in experiment [7] and in experiment [8] were 30.3 µM and 22.6 µM, respectively.
Turning to `CCc1c(Cc2[nH]c(Cc3[nH]c(C=O)c(C)c3CC)c(CC)c2CC)[nH]c(C=O)c1C`, the TGI was greater than 100 µM in experiment [1]; greater than 1 µM in [2]; greater than 100 µM in experiment [3]; greater than 1 µM in experiment [4]; greater than 100 µM in experiment [5]; greater than 100 µM in experiment [7]. For the same compound, the TGI in [8] is greater than 100 µM.
Consider `CCCCCCCCCCCCCC(=O)OCC1OC(n2cc(F)c(=O)[nH]c2=O)C(NC(=O)OCc2ccccc2)C(OC(=O)CCCCCCCCCCCCC)C1O` (stereo not drawn), for which the TGI in [1], in experiment [2], in experiment [3], in experiment [4], in [5] and in experiment [6] was greater than 100 µM throughout. Moreover, the TGI in [7] and in experiment [8] was greater than 100 µM throughout.
`COC(=O)/C=C(\C(=O)OC)c1c2c3c(cc(OC)c(OC)c3c3ccccc13)CCN2C`: the TGI was greater than 100 µM in experiment [1]; 89.7 µM in [2]; greater than 100 µM in experiment [3]; greater than 100 µM in experiment [5]; 76.7 µM in [7]; greater than 100 µM in [8].
As for `COC(=O)C(CC(C)C)NC(=O)NC12CC3CC(CC(F)(C3)C1)C2` (stereo not drawn), the TGI in [1], in experiment [2], in experiment [3], in experiment [6], in experiment [7] and in experiment [8] was greater than 100 µM each time.
For the compound `CCCCCCCCOCC(O)COC(=O)CCCCCCC` (stereo not drawn), the TGI in experiment [1], in experiment [2], in experiment [3], in [4], in [5] and in [6] was greater than 100 µM each time. Also, the TGI in experiment [7] and in [8] was greater than 100 µM in each case.
With `N#Cc1ccccc1NC(=O)C(=O)c1c(O)c2ccccc2oc1=O`, the TGI in experiment [1], in [2], in [3], in experiment [4], in experiment [9] and in experiment [6] was greater than 100 µM each time. In addition, the TGI in [7] and in experiment [8] was greater than 100 µM throughout.
Take `COc1ccc(C2CC(c3cc(C)ccc3O)=NC(N)=N2)cc1` (stereo not drawn): the TGI in experiment [1], in experiment [2], in [3], in experiment [4], in [5] and in experiment [6] was greater than 100 µM each time. Besides, the TGI in experiment [7] and in experiment [8] was greater than 100 µM throughout.

For the origin of these results see PubChem BioAssay (NCI).
